# Measurements as given in patent publication US20220127565A1, “A Self-Assembling Short Amphiphilic Peptide And Related Methods And Uses” (Agency for Science, Technology and Research, priority 2019, published 2022).
# Residues, ends and D or L forms follow the SMILES beside them.
# What was measured:
# [1] = Thixotropy of hydrogel, recovery after vortexing; type: physicochemical; details: hydrogel disturbed by vortexing
# [2] = TGA degradation temperature; type: physicochemical
# [3] = Gelation / hydrogel formation, minimum gelation concentration in water, buffered saline or PBS; type: physicochemical; details: for Self-assembly into hydrogels / scaffolds: aqueous conditions; for Self-assembly into hydrogels / scaffolds / Minimum gelation concentration in buffered saline: buffered saline
# Description: Preparation of Hydrogels.
# Lyophilized peptide powder was dissolved in milliQ water and mixed for 30 seconds by vortexing to obtain a homogenous solution. 10% volume of 10-times phosphate-buffered saline was subsequently added and mixed by pipetting. Gelation occurred between seconds (PBS) to overnight (water), depending on the peptide concentration and solution used.
# [4] = Circular dichroism spectroscopy, secondary structure transitions with increasing peptide concentration; type: physicochemical; details: for Secondary structure transitions: Table 1; for Secondary structure / conformational transitions (circular dichroism): increasing peptide concentration
# Description: Circular Dichroism Spectroscopy.
# CD spectra were collected with a Jasco CD spectrophotometer fitted with a temperature controller, using quartz suprasil cuvettes with an optical path length of 1 mm. All samples were prepared in milIQ water and equilibrated for an hour at room temperature before measurement. Data acquisition was performed for wavelength range from 190-260 nm with a spectral bandwidth of 1.0 nm. All spectra were baseline-corrected using milliQ water as baseline. The mean residue ellipticity (MRE) was calculated as follows:
# [θ]=θ/(10·N·c·l) where […] represents the ellipticity in millidegrees, N the number of amino acid residues, c the molar concentration in mol·L-1, and I the cell path length in cm.
# [5] = Gelation in dimethylsulfoxide; type: physicochemical
# [6] = system: 8 cm×8 cm excisional full thickness wound; test: Porcine wound healing study of peptide hydrogel wound dressings; type: in vivo; details: hydrogel applied weekly for 6 weeks
# Description: A porcine wound healing study was performed to evaluate the peptide hydrogels for wound healing applications. An 8 cm×8 cm excisional full thickness wound was created on the back of the animal, and three of the peptide hydrogels were applied using a polydimethylsiloxane mould. Wound dressing changes were carried out weekly for 6 weeks, with application of fresh hydrogel.
# [7] = system: embryonic stem cells H1 and H9; test: 3D culture of pluripotent stem cells encapsulated in hydrogel droplets; type: cell-based, human; details: for Colony formation of single cell suspensions in hydrogel: H1 and H9, cell encapsulation densities exceeding 5×10^6 cells/mL
# Description: (§1) 3D Encapsulation of Stem Cells.
# (§2) H1 embryonic stem cells cultured on Matrigel were dissociated into single cells using TrypLE Express, and re-suspended in 50% mTESR in PBS at an approximate concentration of 4×10^6, 10^7 or 1.6×10^7 cells/mL. 0.5 μL of cells was injected into a droplet of 2 μL 10 mg/mL peptide solution. Warmed culture media (mTESR) containing ROCK inhibitor Y-27632 was added for the first day and replaced by either mTESR or endoderm differentiation media subsequently. The endoderm differentiation protocol was adapted from Spence et al (2011). Briefly, the encapsulated cells were exposed to RPMI media containing 100 ng/mL Activin A, 2 mM glutamax, 1% penicillin-streptomycin and increasing concentrations of defined fetal bovine serum. After 3 days, the hydrogel droplets were washed with RPMI and incubated in hindgut differentiation media (RPMI media containing 1% defined fetal bovine serum, 1% penicillin-streptomycin, 2 mM glutamax, 500 ng/mL FGF4 and 500 ng/mL Wnt3A.
# Immunohistochemistry and Confocal Microscopy Imaging.
# Cell samples were fixed in 4% paraformaldehyde for 15 minutes and permeabilized in 0.01% Triton-X for 10 minutes. The encapsulated human embryonic stem cells were incubated at 4° C. overnight in 5% Bovine-Serum Albumin containing primary antibodies. The corresponding secondary antibodies and DAPI were applied for 90 minutes before the samples were imaged. Confocal microscopy was performed using a Zeiss LSM 510 microscope at the Institute of Medical Biology Microscopy Unit (A*STAR, Singapore).
# [8] = Rheology, storage modulus of hydrogels; type: physicochemical; details: hydrogels prepared in buffered saline
# Description: Hydrogel samples were prepared in polydimethysiloxane moulds to obtain approximately 1 mm thick, 8 mm diameter discs. Dynamic strain and oscillatory frequency sweep experiments were carried out using the ARES-G2 Rheometer (TA Instruments, Piscataway, N.J.) with 8 mm titanium parallel plate geometry. The readings of 3 samples were averaged for each condition.
# H9 embryonic stem cells = test: 3D endoderm / hindgut differentiation of encapsulated stem cells (H9); type: cell-based, human; details: H9 in 8 mg/mL hydrogel droplets
# [9] = system: H1 human embryonic stem cells; test: Chromosomal aberrations after 5 passages of 3D culture; type: cell-based
# Description: as §1, §2
molecule,measurement,setting,value
CC[C@H](C)[C@H](NC(=O)[C@@H](NC(=O)[C@H](CC(=O)O)NC(C)=O)C(C)C)C(N)=O [Ac-DVI-NH2] (Ac-Asp-Val-Ile-NH2),Standing time to return to gel state after vortexing,[1],10 min
same,TGA Degradation Temperature,[2],321.5 °C
same,"[Peptide] min, PBS",[3],9.9 mg/mL
same,Self-assembly into hydrogels / scaffolds,[3],self-assemble into nanofibrous scaffolds
same,"[Peptide] min, water",[3],11.6 mg/mL
"CC[C@H](C)[C@H](NC(C)=O)C(=O)N[C@H](C(=O)N[C@@H](CC(=O)O)C(=O)O)C(C)C [Ac-IVD, reference compound] (Ac-Ile-Val-Asp-OH; C-terminus assumed)",TGA Degradation Temperature,[2],323.6 °C
same,"[Peptide] min, PBS",[3],19.2 mg/mL
same,"[Peptide] min, water",[3],40.8 mg/mL
"CC[C@H](C)[C@H](NC(C)=O)C(=O)N[C@H](C(=O)N[C@@H](CC(=O)O)C(N)=O)C(C)C [Ac-IVD-NH2, reference compound] (Ac-Ile-Val-Asp-NH2)",TGA Degradation Temperature,[2],328.5 °C
same,"[Peptide] min, PBS",[3],33.9 mg/mL
same,"[Peptide] min, water",[3],44.9 mg/mL
"CC[C@H](C)[C@H](NC(C)=O)C(=O)N[C@H](C(=O)N[C@@H](CCCCN)C(N)=O)C(C)C [Ac-IVK-NH2, reference compound] (Ac-Ile-Val-Lys-NH2)",Secondary structure transitions,[4],Yes
same,Minimum gelation concentration in buffered saline,[3],>30 mg/mL
CC[C@H](C)[C@H](NC(=O)[C@@H](NC(=O)[C@H](CCCCN)NC(C)=O)C(C)C)C(N)=O [Ac-KVI-NH2] (Ac-Lys-Val-Ile-NH2),Secondary structure transitions,[4],Yes
same,Secondary structure / conformational transitions (circular dichroism),[4],same secondary structure transitions as their parent sequences
same,Minimum gelation concentration in buffered saline,[3],>30 mg/mL
Ac-GAVLI-NH2 [Ac-GAVLI-NH2],Gel formation in dimethylsulfoxide,[5],thixotrophic gels
Ac-HGAVIA-NH2 [Ac-HGAVIA-NH2],Gel formation in dimethylsulfoxide,[5],thixotrophic gels
Ac-HGAVLI-NH2 [Ac-HGAVLI-NH2],Gel formation in dimethylsulfoxide,[5],thixotrophic gels
same,Reduction of wound size,[6],effective reduction of wound size
"Ac-ILVAGK-NH2 [Ac-ILVAGK-NH2, reference compound]",Colony formation of single cell suspensions in hydrogel,[7],several colonies developed
same,Secondary structure transitions,[4],Yes
same,Storage moduli of hydrogels,[8],~10 kPa
same,Minimum gelation concentration in buffered saline,[3],3 mg/mL
Ac-KGAVLI-NH2 [Ac-KGAVLI-NH2],Colony formation at lower cell seeding densities,[7]; 2×10^6 cells/mL,formation of several colonies within a single droplet
same,Colony formation of single cell suspensions in hydrogel,[7],more likely to aggregate into a single colony
same,"Pluripotency, staining of Oct4 and Tral-60 biomarkers",[7]; cultured in defined mTESR media,retained their pluripotency
same,Retention of the expanding colonies,"[7]; day 7, bioprinted hydrogel droplets encapsulating cells",higher retention of the expanding colonies
same,Cell migration and consistency in generating single colonies,"[7]; synthetic 3D stem cell culture substrate, compared to Gen1 analog",enhanced cell migration and better consistency in generating single colonies
same,Secondary structure transitions,[4],Yes
same,Secondary structure / conformational transitions (circular dichroism),[4],same secondary structure transitions as their parent sequences
same,Expression of hindgut biomarker Cdx2,H9 embryonic stem cells; day 9,expression of hindgut biomarker Cdx2 was observed
same,"Cells expressing Sox17, flow cytometry",H9 embryonic stem cells; definitive endoderm differentiation,90%
same,"Mutagenicity, chromosomal aberrations",[9],non-mutagenic
same,Reduction of wound size,[6],effective reduction of wound size
same,Minimum gelation concentration in buffered saline,[3],3 mg/mL
Ac-SGAVIA-NH2 [Ac-SGAVIA-NH2],Gel formation in dimethylsulfoxide,[5],thixotrophic gels
H-KGAVLI-NH2 [KGAVLI-NH2],Secondary structure transitions,[4],Yes
same,Secondary structure / conformational transitions (circular dichroism),[4],same conformational transitions
same,Self-assembly into hydrogels / scaffolds,[3],forms hydrogels in buffered saline
same,Minimum gelation concentration in buffered saline,[3],20 mg/mL
H-SGAVLI-NH2 [SGAVLI-NH2],Gel formation in dimethylsulfoxide,[5],thixotrophic gels
same,Reduction of wound size,[6],effective reduction of wound size
